Assays:
Format in all cases: physicochemical
[1] = DVS (dynamic vapor sorption) analysis
Method: DVS refers to dynamic vapor sorption: The measurement was conducted on SMS DVS Advantage; at 25° C., the humidity was changed as follows: 50%-95%-0%-95%-50%, in steps of 10% (5% for the last step) (specific humidity ranges are shown in corresponding graphs, and those listed here were used in most cases); the criterion was dm/dt being no greater than 0.002%.

[2] = Long-term/accelerated stability study
Method: 1. The hydrobromide in crystal form α was left to stand under 25° C., 60% RH conditions and 40° C., 75% RH conditions to investigate its stability.
4. The fumarate in crystal form II was subjected to 6-month long-term (25° C., 60% RH) and accelerated (40° C., 75% RH) stability studies.

[3] = Influencing factor stability study
[4] = 40° C., open, 30 days (5/10/30-day study)
[5] = 60° C., open, 30 days (5/10/30-day study)
[6] = 4500 Lux, open, 30 days (5/10/30-day study)
[7] = RH 75%, open, 30 days (5/10/30-day study)

moisture-absorption weight gain ([1]; accelerated conditions, 70% RH): about 2.75%
moisture-absorption weight gain ([1]; extreme conditions, 90% RH): about 3.85%
moisture-absorption weight gain ([1]; normal conditions, 25° C., 60% RH): about 2.38%
crystal form after DVS analysis ([1]; re-examined after DVS): did not change
Purity, 1 month ([2]; 25° C., 60%RH): 99.7%
Purity, 2 months ([2]; 25° C., 60%RH): 99.7%
Purity, 3 months ([2]; 25° C., 60%RH): 99.7%
Purity, 6 months ([2]; 25° C., 60%RH, 6 months): 99.7%
Purity, 1 month ([2]; 40° C., 75%RH): 99.7%
Purity, 2 months ([2]; 40° C., 75%RH): 99.7%
Purity, 3 months ([2]; 40° C., 75%RH): 99.7%
Purity, 6 months ([2]; 40° C., 75%RH, 6 months): 99.7%
Purity, Initial ([2]; Initial): 99.7%
physical and chemical stability (conclusion) ([2]; long-term (25° C., 60% RH) and accelerated (40° C., 75% RH) conditions, 6 months): good physical and chemical stability
Color and appearance ([3]; 40° C., open, 5 days): White solid
Purity ([3]; 40° C., open, 5 days): 99.6%
Color and appearance ([3]; 40° C., open, 10 days): White solid
Purity ([3]; 40° C., open, 10 days): 99.5%
Color and appearance [3, 4]: White solid
Purity [3, 4]: 99.2%
Color and appearance ([3]; 60° C., open, 5 days): White solid
Purity ([3]; 60° C., open, 5 days): 99.5%
Color and appearance ([3]; 60° C., open, 10 days): White solid
Purity ([3]; 60° C., open, 10 days): 99.5%
Color and appearance [3, 5]: White solid
Purity [3, 5]: 98.0%
Color and appearance ([3]; 4500 Lux, open, 5 days): White solid
Purity ([3]; 4500 Lux, open, 5 days): 99.6%
Color and appearance ([3]; 4500 Lux, open, 10 days): White solid
Purity ([3]; 4500 Lux, open, 10 days): 99.6%
Color and appearance [3, 6]: White solid
Purity [3, 6]: 98.4%
Color and appearance ([3]; Initial, 0 days (30-day study)): White solid
Purity ([3]; Initial, 0 days (30-day study)): 99.7%
Color and appearance ([3]; RH 75%, open, 5 days): White solid
Purity ([3]; RH 75%, open, 5 days): 99.7%
Weight gain ([3]; RH 75%, open, 5 days): 0.54%
Color and appearance ([3]; RH 75%, open, 10 days): White solid
Purity ([3]; RH 75%, open, 10 days): 99.7%
Weight gain ([3]; RH 75%, open, 10 days): 1.03%
Weight gain ([3]; RH 75%, open, 30 days): 1.42%
Color and appearance [3, 7]: White solid
Purity [3, 7]: 99.7%
Color and appearance ([3]; RH 90%, open, 5 days): White solid
Purity ([3]; RH 90%, open, 5 days): 99.7%
Weight gain ([3]; RH 90%, open, 5 days): 1.16%
Color and appearance ([3]; RH 90%, open, 10 days): White solid
Purity ([3]; RH 90%, open, 10 days): 99.7%
Weight gain ([3]; RH 90%, open, 10 days): 2.77%
Color and appearance ([3]; RH 90%, open, 30 days): White solid
Purity ([3]; RH 90%, open, 30 days): 99.7%
Weight gain ([3]; RH 90%, open, 30 days): 3.97%
SMILES: Cn1nccc1Nc1nccc(-c2cc3n(c2)C(=O)N([C@H](CO)c2cccc(Cl)c2)C3)n1.O=C(O)/C=C/C(=O)O [Fumarate in crystal form II]
physical and chemical stability (conclusion) ([3]; high-temperature conditions (40° C. and 60° C.) and high-humidity conditions (75% and 92.5%), 30 days): relatively good physical and chemical stability
